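Growth conditions: 96-well plates. Treatment: test compound, 48 hours, 5 concentrations. Analysis: linear interpolation between bracketing concentrations; unreached endpoints set to highest concentration. Here, GI50 denotes the concentration required for 50% inhibition of growth.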 Calls of active or inactive are those of the source. Rule as the data show it: active = GI50 up to about 1.1 µM and inactive = higher.
Experiments:
Test in all cases: NCI tumour cell line growth inhibition, 48 h
SNB-75 = test system: SNB-75
COLO 205 = test system: COLO 205
SK-MEL-28 = test system: SK-MEL-28
U-251 = test system: U-251
MDA-N = test system: MDA-N
IGROV-1 = test system: IGROV-1
NCI-H226 = test system: NCI-H226
NCI-H522 = test system: NCI-H522
SK-MEL-5 = test system: SK-MEL-5
SF-295 = test system: SF-295
OVCAR-5 = test system: OVCAR-5
TK-10 = test system: TK-10
OVCAR-8 = test system: OVCAR-8
SK-MEL-2 = test system: SK-MEL-2
HT-29 = test system: HT-29
BT-549 = test system: BT-549
MDA-MB-435 = test system: MDA-MB-435
HOP-62 = test system: HOP-62
SK-OV-3 = test system: SK-OV-3

SMILES | GI50 (SNB-75) | GI50 (COLO 205) | GI50 (SK-MEL-28) | GI50 (U-251) | GI50 (MDA-N) | GI50 (IGROV-1) | GI50 (NCI-H226) | GI50 (NCI-H522) | GI50 (SK-MEL-5) | GI50 (SF-295) | GI50 (OVCAR-5) | GI50 (TK-10) | GI50 (OVCAR-8) | GI50 (SK-MEL-2) | GI50 (HT-29) | GI50 (BT-549) | GI50 (MDA-MB-435) | GI50 (HOP-62) | GI50 (SK-OV-3)
NC(Cc1ccc(O)c(O)c1)P(=O)(O)O (stereo not drawn) | > 100 µM (inactive) | > 10 µM (inactive) | > 100 µM (inactive) | > 100 µM (inactive) | > 100 µM (inactive) | > 100 µM (inactive) | > 100 µM (inactive) | 4.75 µM (inactive) | > 100 µM (inactive) | > 100 µM (inactive) | > 100 µM (inactive) | > 100 µM (inactive) | > 100 µM (inactive) | > 100 µM (inactive) | > 100 µM (inactive) | > 100 µM (inactive) | > 100 µM (inactive) | – | –
CC1(C)CC(=O)C2=C(C1)c1c(ccc3ccccc13)NC2c1cn(Cc2ccc(Cl)cc2)c2ccccc12 (stereo not drawn) | > 100 µM (inactive) | > 100 µM (inactive) | – | 56.8 µM (inactive) | > 100 µM (inactive) | 59.2 µM (inactive) | – | 66.8 µM (inactive) | > 100 µM (inactive) | 31.2 µM (inactive) | 36.5 µM (inactive) | 27.7 µM (inactive) | > 100 µM (inactive) | > 100 µM (inactive) | > 100 µM (inactive) | 95.9 µM (inactive) | > 100 µM (inactive) | 40.9 µM (inactive) | > 100 µM (inactive)
CC[C@H](C)[C@@H]([C@@H](CC(=O)N1CCC[C@H]1[C@H](OC)[C@@H](C)C(=O)NCCc1ccccc1)OC)N(C)C(=O)C(NC(=O)[C@H](C(C)C)N(C)C)C(C)C (stereo partly drawn) | 0.000275 µM (active) | 9.16e-05 µM (active) | > 10 µM (inactive) | 0.000251 µM (active) | 3.46e-05 µM (active) | 0.000363 µM (active) | 0.00064 µM (active) | 5.83e-05 µM (active) | 4.18e-05 µM (active) | – | – | 0.000676 µM (active) | 0.000333 µM (active) | 0.000423 µM (active) | 8.89e-05 µM (active) | 0.000588 µM (active) | 3.18e-05 µM (active) | 0.000235 µM (active) | –
CCCCON1C[C@@H](O)C(O)[C@@H](O)C1 (stereo partly drawn) | > 100 µM (inactive) | > 100 µM (inactive) | > 100 µM (inactive) | > 100 µM (inactive) | > 100 µM (inactive) | > 100 µM (inactive) | > 100 µM (inactive) | > 100 µM (inactive) | > 100 µM (inactive) | > 100 µM (inactive) | > 100 µM (inactive) | > 100 µM (inactive) | > 100 µM (inactive) | > 100 µM (inactive) | > 100 µM (inactive) | > 100 µM (inactive) | > 100 µM (inactive) | > 100 µM (inactive) | –
C[N+]1(Cc2ccc(Cl)c(Cl)c2)CCCC1C1CCCN(Cc2ccc(Cl)c(Cl)c2)C1 (stereo not drawn) | > 100 µM (inactive) | > 100 µM (inactive) | > 100 µM (inactive) | > 100 µM (inactive) | > 100 µM (inactive) | 70 µM (inactive) | – | > 100 µM (inactive) | 32.2 µM (inactive) | > 100 µM (inactive) | > 100 µM (inactive) | > 100 µM (inactive) | > 100 µM (inactive) | > 100 µM (inactive) | > 100 µM (inactive) | > 100 µM (inactive) | > 100 µM (inactive) | > 100 µM (inactive) | > 100 µM (inactive)
CC(=O)Nc1c(C)cc2c(nc3n2CCC3OC(C)=O)c1[N+](=O)[O-] (stereo not drawn) | > 100 µM (inactive) | > 100 µM (inactive) | > 100 µM (inactive) | > 100 µM (inactive) | > 100 µM (inactive) | > 100 µM (inactive) | > 100 µM (inactive) | > 100 µM (inactive) | > 100 µM (inactive) | > 100 µM (inactive) | > 100 µM (inactive) | – | > 100 µM (inactive) | > 100 µM (inactive) | > 100 µM (inactive) | > 100 µM (inactive) | > 100 µM (inactive) | – | > 100 µM (inactive)
